Data from EP0974594A1, “Artemisinin derivatives as anti-infective agent” (The Hong Kong University of Science & Technology, priority 1998, dated 2000).
In brackets after ≈: the same amount, converted by molar mass. Like-named read-outs stand apart in the source and are kept apart here.

Legend:
Format in all cases: cell-based
[1] = system: Neospora caninum tachyzoites; assay: Screening of compounds against Neospora caninum cell cultures in vitro (microscopic evaluation of infected host cell monolayer); set-up: key: 0 = no effect; 1 = weak effect; 2 = full effect; T = cytotoxic; settings: VERO or ED host cells, evaluation 4 days after treatment
Description: (a) Screening of compounds against Neospora Caninum cell cultures in vitro.
Screening was conducted in 96-well plates (Falcon 3872). A monolayer of host cells (VERO or ED) were placed on a cell culture plate. Non-infected monolayers of cells were cultured in two 50 ml tissue culture bottles (50 cm^3 cell culture area). The cell layer was detached with trypsin-EDTA (5 ml. Gibco 45300-019) in a CO2-culture cupboard at 37°C. After 10 minutes, most of the cells were detached. The cells were transferred with a 5 ml pipette into a 50 ml centrifuge tube (Greiner, B769331) containing about 1 ml warmed fetal calf serum. After centrifugation for 5 minutes at 1500 rpm (Varifuge 3.0, Heraeus), the liquid was removed and the cell pellet suspended in RPMI medium (100 ml, 95% RPMI 1640, 2% FCS, 1% L-glutamine, 1% sodium hydrogen carbonate, 1% penicillin/streptomycin). The cell suspension was pipetted into six 96-well plates at 150 µl per well. The coated cell culture plates were placed in an incubation cupboard at 37°C under 5% CO2 for 24 hours. The cells were then infected with Neospora caninum tachyzoites at a concentration of 48,000 tachyzoites per well. This was followed by incubation at 37°C under 5% CO2 for 24 hours.
The test compounds (0.5 - 1.5 mg) were weighed into 1.5 ml eppendorf vessels and dissolved in 1 ml dimethyl sulphoxide, corresponding to a dilution of about 1 x 10^-3 g ml^-1. The medium used for further dilution consisted of 87% RPMI 1640, 10% FCS, 1% L-glutamine, 1% sodium hydrogen carbonate, 1% penicillin/streptomycin. In the first screening, concentrations of 10^-5, 10^-6 and 10^-7 g ml^-1 were used. The diluted preparations were then transferred to the cell culture plates at a volume of 150 µl per well after 24 hour infection with Neospora caninum. For the first row, untreated medium was used; this row contained infected and uninfected cells as controls. The cell plate was incubated at 37°C under 5% CO2 for 5 days. Microscopic evaluation was conducted 4 days after treatment and 5 days after infection at a magnification of 25 x 10 in an inverse microscope according to the following evaluation scheme.

[2] = system: Plasmodium Falciparum W2 Strain (Chloroquine resistant); assay: In vitro screening against Plasmodium falciparum, radiolabelled hypoxanthine incorporation, W2 strain; settings: for IC50 / IC90: Plasmodium falciparum; for IC50: read-out: In vitro activity: IC50; for IC90: read-out: In vitro activity: IC90
Description: (§1) (c) In Vitro Screening against Plasmodium Falciparum
Two parasite strains - W2 resistant to chloroquine, and D6 sensitive to chloroquine but resistant to mefloquine were used.
The assay relies on incorporation of radiolabelled hypoxanthine by the parasite and inhibition of incorporation is attributed to activity of known or candidate antimalarial drugs. For each assay, proven antimalarials such as chloroquine, mefloquine, quinine, artemisinin and pyrimethamine were used as controls. The incubation period was 66 hours, and the starting parasitemia was 0.2% with 1% hematocrit. The medium was an RPMI-1640 culture with no folate or p-aminobenzoic acid. […] If a compound was submitted with no prior knowledge of activity, it was dissolved directly in dimethyl sulphoxide (DMSO), and diluted 400 fold with complete culture medium. […] These dilutions were performed automatically by a Biomek 1000 Liquid Handling System in 96-well microtiter plates. The diluted drugs were then transferred to test plates, 200 µl of parasitized erythrocytes were added, and incubated at 37°C in a controlled environment of 5% CO2, 5% O2 and 90% N2. After 42 hours, 25 µl of ^3H-hypoxanthine was added, and the plates incubated for an additional 24 hours. After 66 hours, the plates were frozen at -70°C to lyse the red cells, and then thawed and harvested onto glass fiber filter mats in a 96-well harvester. The filter mats were then counted in a scintillation counter. For each drug, the concentration response profile was determined and 50%, 90% and 10% inhibitory concentrations (IC50, IC90 and IC10) were determined by a non-linear logistic dose response analysis program.
(§2) A prescreen format can be used wherein a 3-dilution assay may be used to determine activity at high medium or low concentrations. The concentrations were selected as 50,000, 500 and 50 ng ml^-1. These were performed in duplicate on a 96-well format plate with 14 test compounds and one known (standard) compound per plate. The system was automated with a Biomek diluter for mixing and diluting the drugs, and adding drugs and parasites to a test plate.
In the prescreen format, if the […] […] If the AF has a ">", then the IC value is greater than the prescreen dilution value; thus "AF>250" means that the IC value is greater than 250 ng ml^-1 and no further screening is carried out. In such cases, values of 0.00 are entered for IC values.

[3] = system: Plasmodium Falciparum D6 Strain (Chloroquine sensitive); assay: In vitro screening against Plasmodium falciparum, radiolabelled hypoxanthine incorporation, D6 strain; settings: for IC50 / IC90: Plasmodium falciparum; for IC50: read-out: In vitro activity: IC50; for IC90: read-out: In vitro activity: IC90
Source text: as §1
Two parasite strains - W2 resistant to chloroquine, and D6 sensitive to chloroquine but resistant to mefloquine were used. In Table IV below, the best compounds should show no cross resistance between the two strains.
The assay relies on incorporation of radiolabelled hypoxanthine by the parasite and inhibition of incorporation is attributed to activity of known or candidate antimalarial drugs. For each assay, proven antimalarials such as chloroquine, mefloquine, quinine, artemisinin and pyrimethamine were used as controls. The incubation period was 66 hours, and the starting parasitemia was 0.2% with 1% hematocrit. The medium was an RPMI-1640 culture with no folate or p-aminobenzoic acid. Albumax rather than 10% normal heat inactivated human plasma was used as, with Albumax, less protein binding is observed, and compounds elicit slightly higher activities in this model. If a compound was submitted with no prior knowledge of activity, it was dissolved directly in dimethyl sulphoxide (DMSO), and diluted 400 fold with complete culture medium. The unknown compound was started at a maximum concentration of 50,000 ng ml^-1 and sequentially diluted 2-fold for 11 times to give a concentration range of 1048 fold. These dilutions were performed automatically by a Biomek 1000 Liquid Handling System in 96-well microtiter plates. The diluted drugs were then transferred to test plates, 200 µl of parasitized erythrocytes were added, and incubated at 37°C in a controlled environment of 5% CO2, 5% O2 and 90% N2. After 42 hours, 25 µl of ^3H-hypoxanthine was added, and the plates incubated for an additional 24 hours. After 66 hours, the plates were frozen at -70°C to lyse the red cells, and then thawed and harvested onto glass fiber filter mats in a 96-well harvester. The filter mats were then counted in a scintillation counter. For each drug, the concentration response profile was determined and 50%, 90% and 10% inhibitory concentrations (IC50, IC90 and IC10) were determined by a non-linear logistic dose response analysis program.
as §2
In the prescreen format, if the ANALYSIS FIELD (AF) has a "<", then the compound was "very active" and the IC values are most likely to be below the last dilution value (in nanograms/ml), which is listed next to AF. In most cases, these compounds were run again at lower starting concentration to determine the true IC value. If the AF has a ">", then the IC value is greater than the prescreen dilution value; thus "AF>250" means that the IC value is greater than 250 ng ml^-1 and no further screening is carried out. In such cases, values of 0.00 are entered for IC values.

Eimeria tenella = assay: Screening of compounds against Eimeria tenella cell cultures in vitro (chick kidney cell monolayers, microscopic evaluation); settings: chick kidney cells, day 5 post infection
Description: (b) Screening of Compounds again Eimeria Tenella cell cultures in vitro
Cells from kidneys of 19 day old chicks are cultured as monolayers in 96-well plates (Falcon 3872) in a medium of Hanks lactalbumine hydrolysate, 5% fetal calf serum, 1% glutamine and 1% non-essential amino acids. After two days at 42°C under 5% CO2, the culture was infected with excised sporozoites of Eimeria tenella at about […] per well. Test compounds were dissolved in DMSO and diluted with culture medium to a maximum end concentration of 10µg ml^-1. The dilution steps were 1:10. On day 5 post infection, the cultures were evaluated under a microscope at 100-fold magnification and the condition of the host cells and the amount of intact schizonts and free merozoites was determined.

[4] = D6 Strain (Chloroquine sensitive), 66 hours incubation

IC50 ([2]; W2, 66 h) | IC90 ([2]; W2, 66 h) | IC50 [3, 4] | IC90 [3, 4] | Compound | Evaluation (observable effect) ([1]; Dose 10^-5 g/ml) | Evaluation (observable effect) ([1]; Dose 10^-6 g/ml) | Evaluation (observable effect) ([1]; Dose 10^-7 g/ml) | In vitro activity: (IC10) ([2]; W2, 66 h) | In vitro activity: (IC10) [3, 4] | Evaluation (effectiveness) (Eimeria tenella; Dose 10^-5 g/ml) | Evaluation (effectiveness) (Eimeria tenella; Dose 10^-6 g/ml) | Evaluation (effectiveness) (Eimeria tenella; Dose 10^-7 g/ml) | In vitro activity: (IC10) ([2]; W2 Strain (Chloroquine resistant), 66 hours incubation) | IC50 ([3]; D6, 66 h) | IC90 ([3]; D6, 66 h) | Evaluation (effectiveness) (Eimeria tenella; Dose 10^-8 g/ml)
0.07 ng/mL (≈ 0.18 nM) | 0.21 ng/mL (≈ 0.541 nM) | 0.03 ng/mL (≈ 0.0772 nM) | 0.03 ng/mL (≈ 0.0772 nM) | C[C@H]1[C@@H](OC(=O)c2ccccc2)O[C@@H]2O[C@@]3(C)CC[C@H]4[C@H](C)CC[C@@H]1[C@@]24OO3 [Example 2, 10β-dihydroartemisinyl benzoate] | 2 | 1 | 0 | 0.03 ng/mL | 0.02 ng/mL | 2 (2 = active) | 2 (2 = active) | 0 (0 = inactive) |  |  |  | 
0.48 ng/mL (≈ 0.926 nM) | 1.1 ng/mL (≈ 2.12 nM) | 0.44 ng/mL (≈ 0.849 nM) | 0.71 ng/mL (≈ 1.37 nM) | C[C@H]1[C@@H](OC(=O)c2ccc3c(c2)C(=O)c2ccccc2C3=O)O[C@@H]2O[C@@]3(C)CC[C@H]4[C@H](C)CC[C@@H]1[C@@]24OO3 [Example 7] |  |  |  | 0.21 ng/mL | 0.27 ng/mL |  |  |  |  |  |  | 
 |  |  |  | C[C@@H]1CC[C@H]2[C@@H](C)C(=O)O[C@@H]3O[C@@]4(C)CC[C@@H]1[C@]32OO4 [Artemisinin, artemisinin] | 0 |  |  |  |  | 2 (2 = active) | 1 (1 = weakly active) | 0 (0 = inactive) |  |  |  | 
 |  |  |  | C[C@H]1[C@H](OC(=O)CCC(=O)[O-])O[C@@H]2O[C@@]3(C)CC[C@H]4[C@H](C)CC[C@@H]1[C@@]24OO3.[Na+] [Sodium Artesunate, sodium artesunate] | 2 | 0 |  |  |  |  | 2 (2 = active) | 2 (2 = active) |  |  |  | 0 (0 = inactive)

Compound | IC50 ([2]; W2, 66 h) | IC90 ([2]; W2, 66 h) | IC50 [3, 4] | IC90 [3, 4] | Evaluation (observable effect) ([1]; Dose 10^-5 g/ml) | Evaluation (observable effect) ([1]; Dose 10^-6 g/ml) | Evaluation (observable effect) ([1]; Dose 10^-7 g/ml) | In vitro activity: (IC10) ([2]; W2, 66 h) | In vitro activity: (IC10) [3, 4] | Evaluation (effectiveness) (Eimeria tenella; Dose 10^-5 g/ml) | Evaluation (effectiveness) (Eimeria tenella; Dose 10^-6 g/ml) | Evaluation (effectiveness) (Eimeria tenella; Dose 10^-7 g/ml) | In vitro activity: (IC10) ([2]; W2 Strain (Chloroquine resistant), 66 hours incubation) | IC50 ([3]; D6, 66 h) | IC90 ([3]; D6, 66 h) | Evaluation (effectiveness) (Eimeria tenella; Dose 10^-8 g/ml)
CC(=O)O[C@@H]1O[C@@H]2O[C@@]3(C)CC[C@H]4[C@H](C)CC[C@@H]([C@H]1C)[C@@]24OO3 [Example 1, 10-dihydroartemisinyl ethanoate] | 119 ng/mL (≈ 365 nM) | 163 ng/mL (≈ 500 nM) |  |  | 2 | 1 | 0 |  | 127.91 ng/mL |  |  | 1 (1 = weakly active) | 86.88 ng/mL | 172 ng/mL (≈ 526 nM) | 231 ng/mL (≈ 706 nM) | 0 (0 = inactive)
